Reference: PMC7180948, “New Insights into 4-Anilinoquinazolines as Inhibitors of Cardiac Troponin I–Interacting Kinase (TNNi3K)” (Molecules, 2020)
Blank lines part the entries; values can stand above or below the molecule they belong to.

Key:
[1] = target: STK36 (Homo sapiens, UniProt Q9NRP7); test: KINOMEscan at […], single concentration; type: binding
[2] = target: T1, PDFRB (Homo sapiens, UniProt P09619); test: KINOMEscan at […], single concentration; type: binding
T1 construct: gene PDGFRB

[3] = target: T2, DCAMKL3 (Homo sapiens, UniProt Q9C098); test: biochemical; design: KINOMEscan competition binding panel (Eurofins DiscoverX), single concentration, % inhibition; details: read-out: 7 at 1 µM % inhibition
T2 construct: gene DCLK3
Experimental: (§1) KinomeScan® Assay on 7 and 15 was performed as previously described by EuroFins DiscoverX [24]. GSK114 (7) and 15 were submitted for a KINOMEscan® assay to explore the selectivity profile across >400 human kinases at a compound concentration of 1 µM. […] GSK114 (7) is a narrow-spectrum TNNi3K inhibitor but has some potent off-targets including GAK which has been previously reported for this chemotype. […] If utilized together this set of compounds could be useful to investigate TNNi3K biology.

[4] = target: PHKG1 (Homo sapiens, UniProt Q16816); test: biochemical; design: KINOMEscan competition binding panel (Eurofins DiscoverX), single concentration, % inhibition; details: read-out: 7 at 1 µM % inhibition
Sequence of PHKG1 (Q16816 whole entry): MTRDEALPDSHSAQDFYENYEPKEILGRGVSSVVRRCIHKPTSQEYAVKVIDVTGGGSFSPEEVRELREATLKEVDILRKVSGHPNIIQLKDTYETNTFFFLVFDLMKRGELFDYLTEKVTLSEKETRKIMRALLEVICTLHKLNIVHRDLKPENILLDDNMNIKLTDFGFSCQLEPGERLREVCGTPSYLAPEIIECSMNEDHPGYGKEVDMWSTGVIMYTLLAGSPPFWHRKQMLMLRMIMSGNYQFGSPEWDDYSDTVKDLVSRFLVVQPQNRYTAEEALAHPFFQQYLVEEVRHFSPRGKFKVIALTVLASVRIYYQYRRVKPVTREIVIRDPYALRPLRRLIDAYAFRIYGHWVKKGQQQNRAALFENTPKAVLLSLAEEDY
Experimental: as §1

[5] = target: ACVRL1 (Homo sapiens, UniProt P37023); test: biochemical; design: KINOMEscan competition binding panel (Eurofins DiscoverX), single concentration, % inhibition; details: read-out: 7 at 1 µM % inhibition
Experimental: as §1

[6] = target: T3, MRCKB (Homo sapiens, UniProt Q9Y5S2); test: biochemical; design: KINOMEscan competition binding panel (Eurofins DiscoverX), single concentration, % inhibition; details: read-out: 7 at 1 µM % inhibition
T3 construct: gene CDC42BPB
Experimental: as §1

[7] = target: T4, PCTK2 (Homo sapiens, UniProt Q00537); test: biochemical; design: KINOMEscan competition binding panel (Eurofins DiscoverX), single concentration, % inhibition; details: read-out: 7 at 1 µM % inhibition
T4 construct: gene CDK17
T4 sequence (Q00537 whole entry): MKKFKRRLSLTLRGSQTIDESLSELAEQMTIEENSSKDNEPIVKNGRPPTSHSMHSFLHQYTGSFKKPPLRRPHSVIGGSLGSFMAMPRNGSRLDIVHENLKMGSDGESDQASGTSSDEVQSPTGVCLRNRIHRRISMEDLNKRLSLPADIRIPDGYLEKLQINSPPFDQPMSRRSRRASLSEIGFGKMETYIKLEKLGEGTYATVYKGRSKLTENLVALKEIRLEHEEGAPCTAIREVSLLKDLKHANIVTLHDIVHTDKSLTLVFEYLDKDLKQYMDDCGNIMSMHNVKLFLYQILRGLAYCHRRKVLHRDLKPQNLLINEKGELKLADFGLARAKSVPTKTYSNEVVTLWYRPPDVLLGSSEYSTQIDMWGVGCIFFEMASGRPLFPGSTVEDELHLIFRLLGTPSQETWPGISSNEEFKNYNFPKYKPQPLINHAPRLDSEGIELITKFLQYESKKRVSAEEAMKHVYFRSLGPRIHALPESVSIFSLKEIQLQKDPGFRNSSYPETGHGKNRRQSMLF
Experimental: as §1

[8] = target: T5, PAK7 (Homo sapiens, UniProt Q9P286); test: biochemical; design: KINOMEscan competition binding panel (Eurofins DiscoverX), single concentration, % inhibition; details: read-out: 7 at 1 µM % inhibition
T5 construct: gene PAK5
Experimental: as §1

[9] = target: BMPR2 (Homo sapiens, UniProt Q13873); test: biochemical; design: KINOMEscan competition binding panel (Eurofins DiscoverX), single concentration, % inhibition; details: read-out: 7 at 1 µM % inhibition
Sequence of BMPR2 (Q13873 whole entry): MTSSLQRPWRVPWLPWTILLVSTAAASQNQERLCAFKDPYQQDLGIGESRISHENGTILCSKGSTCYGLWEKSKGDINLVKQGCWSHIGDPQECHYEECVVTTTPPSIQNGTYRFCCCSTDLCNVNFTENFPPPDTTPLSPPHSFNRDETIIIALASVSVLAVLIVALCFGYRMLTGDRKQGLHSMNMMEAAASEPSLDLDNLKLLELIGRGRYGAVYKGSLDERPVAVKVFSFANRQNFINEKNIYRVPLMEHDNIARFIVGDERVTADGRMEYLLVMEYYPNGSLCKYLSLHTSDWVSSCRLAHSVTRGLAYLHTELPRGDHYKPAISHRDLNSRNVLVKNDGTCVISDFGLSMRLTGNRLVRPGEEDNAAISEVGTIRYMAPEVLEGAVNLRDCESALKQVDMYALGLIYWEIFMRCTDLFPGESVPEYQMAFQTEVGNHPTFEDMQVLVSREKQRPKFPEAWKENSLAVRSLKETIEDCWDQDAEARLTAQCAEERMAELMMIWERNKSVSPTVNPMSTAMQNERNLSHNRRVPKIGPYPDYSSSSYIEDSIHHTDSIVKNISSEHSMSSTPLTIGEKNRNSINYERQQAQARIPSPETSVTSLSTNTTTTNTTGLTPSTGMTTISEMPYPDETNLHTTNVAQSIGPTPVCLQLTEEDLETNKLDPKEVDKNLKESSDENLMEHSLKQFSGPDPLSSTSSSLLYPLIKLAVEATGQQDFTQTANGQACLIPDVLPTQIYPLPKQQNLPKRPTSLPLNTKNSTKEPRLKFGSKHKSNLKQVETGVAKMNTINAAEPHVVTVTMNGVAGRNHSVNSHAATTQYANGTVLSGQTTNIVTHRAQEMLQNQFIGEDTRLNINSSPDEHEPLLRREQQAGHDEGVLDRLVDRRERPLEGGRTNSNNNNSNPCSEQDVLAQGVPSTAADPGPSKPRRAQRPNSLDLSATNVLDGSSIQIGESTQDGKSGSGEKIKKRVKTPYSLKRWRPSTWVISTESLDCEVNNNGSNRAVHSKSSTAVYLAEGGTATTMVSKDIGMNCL
Experimental: as §1

[10] = target: MET(Y1235D) (Homo sapiens, UniProt P08581, Y1235D); test: biochemical; design: KINOMEscan competition binding panel (Eurofins DiscoverX), single concentration, % inhibition; details: read-out: 7 at 1 µM % inhibition
Experimental: as §1

[11] = target: ULK1 (Homo sapiens, UniProt O75385); test: biochemical; design: KINOMEscan competition binding panel (Eurofins DiscoverX), single concentration, % inhibition; details: read-out: 7 at 1 µM % inhibition
Experimental: as §1

[12] = target: PAK2 (Homo sapiens, UniProt Q13177); test: biochemical; design: KINOMEscan competition binding panel (Eurofins DiscoverX), single concentration, % inhibition; details: read-out: 7 at 1 µM % inhibition
Sequence of PAK2 (Q13177 whole entry): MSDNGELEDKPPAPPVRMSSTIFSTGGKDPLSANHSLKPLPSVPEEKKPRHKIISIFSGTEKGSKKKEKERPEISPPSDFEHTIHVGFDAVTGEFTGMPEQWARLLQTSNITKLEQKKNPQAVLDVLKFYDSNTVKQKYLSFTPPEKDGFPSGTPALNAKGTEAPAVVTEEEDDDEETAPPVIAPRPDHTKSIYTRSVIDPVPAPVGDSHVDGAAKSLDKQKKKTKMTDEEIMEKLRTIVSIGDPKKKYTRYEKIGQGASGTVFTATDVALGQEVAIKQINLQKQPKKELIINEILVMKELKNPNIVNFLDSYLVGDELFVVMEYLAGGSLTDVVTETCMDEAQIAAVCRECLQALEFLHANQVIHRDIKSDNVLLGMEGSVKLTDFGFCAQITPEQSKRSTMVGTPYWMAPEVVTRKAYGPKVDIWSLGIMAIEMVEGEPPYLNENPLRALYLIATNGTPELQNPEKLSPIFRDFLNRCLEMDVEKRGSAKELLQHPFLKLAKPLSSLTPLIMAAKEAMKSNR
Experimental: as §1

[13] = target: T6, PKAC-beta (Homo sapiens, UniProt P22694); test: biochemical; design: KINOMEscan competition binding panel (Eurofins DiscoverX), single concentration, % inhibition; details: read-out: 7 at 1 µM % inhibition
T6 construct: gene PRKACB
Experimental: as §1

[14] = target: T7, ABL1(Y253F)-phosphorylated (Homo sapiens, UniProt P00519, Y253F); test: biochemical; design: KINOMEscan competition binding panel (Eurofins DiscoverX), single concentration, % inhibition; details: read-out: 7 at 1 µM % inhibition
T7 construct: phosphorylated
Experimental: as §1

[15] = target: GAK (Homo sapiens, UniProt O14976); test: KINOMEscan at […], single concentration; type: binding
Sequence of GAK (O14976 2-1311): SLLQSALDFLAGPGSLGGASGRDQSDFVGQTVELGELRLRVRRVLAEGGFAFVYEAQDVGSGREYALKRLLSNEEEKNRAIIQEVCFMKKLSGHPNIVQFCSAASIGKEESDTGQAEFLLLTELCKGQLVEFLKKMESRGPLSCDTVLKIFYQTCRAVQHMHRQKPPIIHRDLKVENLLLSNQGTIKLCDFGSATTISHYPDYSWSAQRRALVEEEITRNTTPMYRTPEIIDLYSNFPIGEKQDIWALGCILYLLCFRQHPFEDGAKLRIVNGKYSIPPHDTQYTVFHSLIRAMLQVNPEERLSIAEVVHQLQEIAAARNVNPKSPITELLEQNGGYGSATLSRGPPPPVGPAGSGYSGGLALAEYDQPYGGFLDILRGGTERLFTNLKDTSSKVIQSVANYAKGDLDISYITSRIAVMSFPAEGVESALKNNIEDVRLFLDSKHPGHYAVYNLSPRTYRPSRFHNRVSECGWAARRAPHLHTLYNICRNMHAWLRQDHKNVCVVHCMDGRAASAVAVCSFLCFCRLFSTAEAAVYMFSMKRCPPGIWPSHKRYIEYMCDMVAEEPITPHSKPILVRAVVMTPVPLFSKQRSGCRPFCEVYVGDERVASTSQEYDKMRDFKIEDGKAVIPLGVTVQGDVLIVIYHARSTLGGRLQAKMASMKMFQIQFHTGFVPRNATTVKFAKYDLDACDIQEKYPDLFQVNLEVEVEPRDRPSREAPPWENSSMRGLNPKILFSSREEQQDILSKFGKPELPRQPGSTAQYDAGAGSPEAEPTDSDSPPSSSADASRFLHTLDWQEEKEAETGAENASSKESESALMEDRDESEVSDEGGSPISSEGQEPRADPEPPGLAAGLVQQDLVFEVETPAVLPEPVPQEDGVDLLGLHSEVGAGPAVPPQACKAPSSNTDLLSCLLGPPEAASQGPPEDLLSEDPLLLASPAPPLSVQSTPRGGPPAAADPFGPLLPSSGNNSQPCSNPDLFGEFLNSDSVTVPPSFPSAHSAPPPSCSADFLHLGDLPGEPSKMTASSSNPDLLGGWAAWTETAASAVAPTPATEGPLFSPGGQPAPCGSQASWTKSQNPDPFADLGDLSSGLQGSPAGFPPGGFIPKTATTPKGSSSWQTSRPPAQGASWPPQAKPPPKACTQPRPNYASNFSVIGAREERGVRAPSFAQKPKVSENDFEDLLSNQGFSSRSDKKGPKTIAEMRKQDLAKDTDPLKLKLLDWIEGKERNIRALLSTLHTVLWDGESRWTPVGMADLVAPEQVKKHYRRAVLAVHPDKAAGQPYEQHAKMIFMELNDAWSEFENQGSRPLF

[16] = target: EPHA5 (Homo sapiens, UniProt P54756); test: biochemical; design: KINOMEscan competition binding panel (Eurofins DiscoverX), single concentration, percent inhibition; details: read-out: 15 at 1 µM % inhibition
Sequence of EPHA5 (P54756 whole entry): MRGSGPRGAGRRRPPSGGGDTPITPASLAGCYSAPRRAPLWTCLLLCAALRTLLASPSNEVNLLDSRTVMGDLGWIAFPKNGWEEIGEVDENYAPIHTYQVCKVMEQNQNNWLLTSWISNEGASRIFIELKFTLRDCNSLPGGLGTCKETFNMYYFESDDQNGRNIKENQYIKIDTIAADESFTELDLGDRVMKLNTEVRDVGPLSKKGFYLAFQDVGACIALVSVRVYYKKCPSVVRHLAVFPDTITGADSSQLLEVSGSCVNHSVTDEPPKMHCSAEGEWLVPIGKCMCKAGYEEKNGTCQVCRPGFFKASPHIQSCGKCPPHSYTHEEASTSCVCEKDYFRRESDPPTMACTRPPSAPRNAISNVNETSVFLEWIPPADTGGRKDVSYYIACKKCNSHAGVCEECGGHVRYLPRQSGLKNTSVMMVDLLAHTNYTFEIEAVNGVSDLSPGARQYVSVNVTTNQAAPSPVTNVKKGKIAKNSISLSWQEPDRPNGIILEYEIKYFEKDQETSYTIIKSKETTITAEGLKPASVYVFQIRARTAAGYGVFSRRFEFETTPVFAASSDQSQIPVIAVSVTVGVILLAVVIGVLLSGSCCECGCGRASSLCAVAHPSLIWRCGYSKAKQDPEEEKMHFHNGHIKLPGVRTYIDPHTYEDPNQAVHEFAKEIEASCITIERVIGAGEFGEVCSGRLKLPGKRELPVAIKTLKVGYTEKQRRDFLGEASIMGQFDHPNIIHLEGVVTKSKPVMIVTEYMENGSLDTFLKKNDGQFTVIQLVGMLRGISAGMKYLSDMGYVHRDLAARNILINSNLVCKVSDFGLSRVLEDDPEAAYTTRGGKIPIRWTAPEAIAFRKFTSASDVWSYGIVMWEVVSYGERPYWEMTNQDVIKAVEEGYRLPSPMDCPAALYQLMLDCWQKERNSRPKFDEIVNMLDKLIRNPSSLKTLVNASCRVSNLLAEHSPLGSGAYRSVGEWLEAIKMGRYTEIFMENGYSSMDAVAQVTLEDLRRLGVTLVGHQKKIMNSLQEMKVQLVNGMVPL
Outline: (§2)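 KINOMEscan binding panel of >400 kinases, run by Eurofins DiscoverX, with compounds tested at a single concentration of 1 µM.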

[17] = target: TNNI3K (Homo sapiens, UniProt Q59H18); test: biochemical; design: KINOMEscan competition binding panel (Eurofins DiscoverX), single concentration, percent inhibition; details: read-out: 15 at 1 µM % inhibition
Outline: as §2

[18] = target: PDPK1 (Homo sapiens, UniProt O15530); test: biochemical; design: KINOMEscan competition binding panel (Eurofins DiscoverX), single concentration, percent inhibition; details: read-out: 15 at 1 µM % inhibition
Outline: as §2

[19] = target: MKNK1 (Homo sapiens, UniProt Q9BUB5); test: biochemical; design: KINOMEscan competition binding panel (Eurofins DiscoverX), single concentration, percent inhibition; details: read-out: 15 at 1 µM % inhibition
Outline: as §2

[20] = target: CSF1R (Homo sapiens, UniProt P07333); test: biochemical; design: KINOMEscan competition binding panel (Eurofins DiscoverX), single concentration, percent inhibition; details: read-out: 15 at 1 µM % inhibition
Outline: as §2

[21] = target: PHKG2 (Homo sapiens, UniProt P15735); test: biochemical; design: KINOMEscan competition binding panel (Eurofins DiscoverX), single concentration, percent inhibition; details: read-out: 15 at 1 µM % inhibition
Outline: as §2

[22] = target: T8, LOK (Homo sapiens, UniProt O94804); test: biochemical; design: KINOMEscan competition binding panel (Eurofins DiscoverX), single concentration, percent inhibition; details: read-out: 15 at 1 µM % inhibition
T8 construct: gene STK10
Outline: as §2

[23] = target: NEK10 (Homo sapiens, UniProt Q6ZWH5); test: biochemical; design: KINOMEscan competition binding panel (Eurofins DiscoverX), single concentration, percent inhibition; details: read-out: 15 at 1 µM % inhibition
Outline: as §2

[24] = target: T9, MST2 (Homo sapiens, UniProt Q13188); test: biochemical; design: KINOMEscan competition binding panel (Eurofins DiscoverX), single concentration, percent inhibition; details: read-out: 15 at 1 µM % inhibition
T9 construct: gene STK3
Outline: as §2

[25] = target: TSSK1B (Homo sapiens, UniProt Q9BXA7); test: biochemical; design: KINOMEscan competition binding panel (Eurofins DiscoverX), single concentration, percent inhibition; details: read-out: 15 at 1 µM % inhibition
Outline: as §2

Structure (SMILES): CNS(=O)(=O)c1ccc(N(C)C)c(Nc2ncnc3cc(OC)c(OC)cc23)c1 [compound 7, 3-((6,7-dimethoxyquinazolin-4-yl)amino)-4-(dimethylamino)-N-methylbenzenesulfonamide]
inhibition at 1 µM [1]: 94%
inhibition at 1 µM [2]: 91%
inhibition at 1 µM [3]: 15%
inhibition at 1 µM [4]: 0%
inhibition at 1 µM [5]: 0%
inhibition at 1 µM [6]: 0%
inhibition at 1 µM [7]: 0%
inhibition at 1 µM [8]: 0%
inhibition at 1 µM [9]: 0%
inhibition at 1 µM [10]: 33%
inhibition at 1 µM [11]: 18%
inhibition at 1 µM [12]: 0%
inhibition at 1 µM [13]: 0%
inhibition at 1 µM [14]: 38%
inhibition at 1 µM [15]: 92%

inhibition at 1 µM [16]: 0%
inhibition at 1 µM [17]: 7%
inhibition at 1 µM [18]: 0%
inhibition at 1 µM [19]: 4%
inhibition at 1 µM [20]: 0%
inhibition at 1 µM [21]: 2%
inhibition at 1 µM [22]: 7%
inhibition at 1 µM [23]: 0%
inhibition at 1 µM [24]: 4%
inhibition at 1 µM [25]: 9%
Structure (SMILES): CNS(=O)(=O)c1ccc(N(C)C)c(Nc2nc(C)nc3cc(OC)c(OC)cc23)c1 [compound 15, 3-((6,7-dimethoxy-2-methylquinazolin-4-yl)amino)-4-(dimethylamino)-N-methylbenzenesulfonamide]
